Data reported in PMC5547389, “Structure-activity relationships and molecular docking studies of chromene and chromene based azo chromophores: A novel series of potent antimicrobial and anticancer agents” (EXCLI Journal, 2017).
≈ marks a conversion by molar mass, not a printed value. Read-outs that look alike come from different tables or passages of the source.

Key:
[1] = tested on: HCT-116, MCF-7, HEPG-2; test: Cytotoxic screening, statements over the three cell lines; format: cell-based; settings: Homo sapiens, read-out: IC50, range over the three cell lines
Method: (§1) Human colon carcinoma (HCT-116), human hepatocellular carcinoma (HEPG-2), adenocarcinomic human alveolar basal epithelial cell (A-549), and human breast adenocarcinoma (MCF-7) cell lines were obtained from the American Type Culture Collection (ATCC, Rockville, MD). The cells were grown on RPMI-1640 medium supplemented with 10 % inactivated fetal calf serum and 50 µg/ml gentamycin. The cells were maintained at 37 °C in a humidified atmosphere with 5 % CO2 and were subcultured two to three times a week. Potential cytotoxicity of the compounds was evaluated on tumor cells using the method of Gangadevi and Muthumary (2007[21]) (Klancnik et al., 2010[36]). The cells were grown as monolayers in growth RPMI-1640. The monolayers of 104 cells adhered at the bottom of the wells in a 96-well microtiter plate incubated for 24 h at 37 °C in a humidified incubator with 5 % CO2. The monolayers were then washed with sterile phosphate buffered saline (0.01 M pH 7.2) and simultaneously the cells were treated with 100 µL from different dilutions of tested sample in fresh maintenance medium and incubated at 37 °C. A control of untreated cells was made in the absence of tested sample. Positive controls containing doxorubicin were also tested as a reference drug for comparison. Six wells were used for each concentration of the test sample. Every 24 hours an observation under the inverted microscope was made. The number of the surviving cells was determined by staining the cells with crystal violet (Mosmann, 1983[42]; Gangadevi and Muthumary, 2007[21]) followed by cell lysing using 33 % glacial acetic acid and reading the absorbance at 590 nm using microplate reader (SunRise, TECAN, Inc, USA) after well mixing. The absorbance values from untreated cells were considered as 100 % proliferation. The number of viable cells was determined using microplate reader as previously mentioned before and the percentage of […] was calculated as [1-(ODt/ODc)] x 100 % where ODt is the mean optical density of wells treated with the tested sample and ODc is the mean optical density of untreated cells. The relation between surviving cells and drug concentration was plotted to get the survival curve of each tumor cell line after treatment with the specified compound. The 50 % inhibitory concentration (IC50), the concentration required to cause toxic effects in 50 % of intact cells, was estimated from graphic plots.
(§2) The in vitro cytotoxic activity was performed by MTT assay (Mosmann, 1983[42]; Alley et al., 1988[6]) against three human carcinoma cell lines: Human colon carcinoma (HCT-116), human breast adenocarcinoma (MCF-7), and human hepatocellular carcinoma (HEPG-2).

[2] = tested on: human hepatocellular carcinoma (HEPG-2); test: Cytotoxic screening; format: cell-based; settings: HepG2, read-out: IC50 HepG-2
Method: as §1, §2

[3] = tested on: human breast adenocarcinoma (MCF-7); test: Cytotoxic screening; format: cell-based
Method: as §1, §2

[4] = tested on: Human colon carcinoma (HCT-116); test: Cytotoxic screening; format: cell-based
Method: as §1, §2

[5] = tested on: Geotricum candidum (RCMB 05097); test: Well diffusion assay (inhibition zone); format: cell-based; settings: read-out: Inhibition Zone (IZ) diameter, G.C
Method: (§3) The microorganism inoculums were uniformly spread using sterile cotton swabs on a sterile Petri dish malt extract agar (for fungi) and nutrient agar (for bacteria). One hundred cubic millimeters of each sample was added to each well (10 mm-diameter holes were cut in the agar gel, 20 mm apart from one another). The systems were incubated for 24-48 h at 37 °C (for bacteria) and at 28 °C (for fungi). After incubation, the microorganism growth was observed. Inhibition zones of the bacterial and fungal growth were measured in millimeters. Tests were performed in triplicate (Cappuccino and Sherman, 1999[12]; Vanden Berghe and Vlientinck, 1991[62]).
(§4) All the newly synthesized compounds described in this report were screened for both antibacterial and antifungal activity via the reported agar diffusion well method (Vanden Berghe and Vlietinck, 1991[62]). The inhibition zones and minimum inhibitory concentrations (MIC) were determined by the serial dilution method (Cappuccino and Sherman, 1999[12]). The antimicrobial activity of the synthesized compounds was tested against a broad panel of microorganisms including two Gram-positive bacteria: Streptococcus pneumoniae (RCMB 010010) and Bacillus subtilis (RCMB 010067), two Gram-negative bacteria: Pseudomonas aeruginosa (RCMB 010043) and Escherichia coli (RCMB 010052), and four fungi: Aspergillus fumigatus (RCMB 02568), Syncephalastrum racemosum (RCMB 05922), Geotricum candidum (RCMB 05097), and Candida albicans (RCMB 05036). Ampicillin, ciprofloxacin, gentamicin and amphotericin B were used as positive control drugs (Atta-ur-Rahman and Thomsen, 2001[7]; Smania et al., 1999[57]). […] While in the case of Gm-ve bacteria, they had weak activity. In addition, certain strains of fungi were sensitive to tested compounds with an IZ range from 12-25 except Candida albicans.

[6] = tested on: Aspergillus fumigatus (RCMB 02568); test: Well diffusion assay (inhibition zone); format: cell-based
Method: as §3, §4

[7] = tested on: Escherichia coli (RCMB 010052); test: Well diffusion assay (inhibition zone); format: cell-based
Method: as §3, §4

[8] = tested on: Bacillus subtilis (RCMB 010067); test: Well diffusion assay (inhibition zone); format: cell-based
Method: as §3, §4

[9] = tested on: Streptococcus pneumoniae (RCMB 010010); test: Well diffusion assay (inhibition zone); format: cell-based
Method: as §3, §4

[10] = tested on: Syncephalastrum racemosum (RCMB 05922); test: Well diffusion assay (inhibition zone); format: cell-based
Method: as §3, §4

[11] = tested on: Gm+ve bacteria, Gm-ve bacteria, fungi; test: Well diffusion assay, statements over groups of microorganisms; format: cell-based
Method: as §3
All the newly synthesized compounds described in this report were screened for both antibacterial and antifungal activity via the reported agar diffusion well method (Vanden Berghe and Vlietinck, 1991[62]). The inhibition zones and minimum inhibitory concentrations (MIC) were determined by the serial dilution method (Cappuccino and Sherman, 1999[12]). […]

[12] = tested on: Geotricum candidum (RCMB 05097); test: MIC by serial dilution method; format: cell-based; settings: read-out: Minimum inhibitory concentration, MIC, G.C
Method: as §4

[13] = tested on: Aspergillus fumigatus (RCMB 02568); test: MIC by serial dilution method; format: cell-based
Method: as §4

[14] = tested on: Escherichia coli (RCMB 010052); test: MIC by serial dilution method; format: cell-based; settings: RCMB010052, read-out: Minimum inhibitory concentration, MIC, E.C
Method: as §4

[15] = tested on: Bacillus subtilis (RCMB 010067); test: MIC by serial dilution method; format: cell-based; settings: RCMB010067, read-out: Minimum inhibitory concentration, MIC, B.S
Method: as §4

[16] = tested on: Streptococcus pneumoniae (RCMB 010010); test: MIC by serial dilution method; format: cell-based; settings: RCMB010010, read-out: Minimum inhibitory concentration, MIC, S.P
Method: as §4

[17] = tested on: Syncephalastrum racemosum (RCMB 05922); test: MIC by serial dilution method; format: cell-based
Method: as §4

[18] = tested on: Candida albicans (RCMB 05036); test: Well diffusion assay (inhibition zone); format: cell-based; settings: RCMB05036, 5 mg/mL in DMSO, fungi, read-out: Inhibition Zone (IZ) diameter, C.A
Method: as §3, §4

[19] = Homo sapiens, MCF7; read-out: IC50 MCF-7
[20] = Homo sapiens, HCT-116; read-out: IC50 HCT-116
[21] = RCMB02568, 5 mg/mL in DMSO, fungi, read-out: Inhibition Zone (IZ) diameter, A.F
[22] = RCMB010052, 5 mg/mL in DMSO, Gm-ve, read-out: Inhibition Zone (IZ) diameter, E.C
[23] = RCMB010067, 5 mg/mL in DMSO, Gm+ve, read-out: Inhibition Zone (IZ) diameter, B.S
[24] = RCMB010010, 5 mg/mL in DMSO, Gm+ve, read-out: Inhibition Zone (IZ) diameter, S.P
[25] = RCMB05922, 5 mg/mL in DMSO, fungi, read-out: Inhibition Zone (IZ) diameter, S.R

Row | SMILES | IC50 [2] [µg/mL] | IC50 [3, 19] [µg/mL] | IC50 [4, 20] [µg/mL] | zone of inhibition at 5000 µg/mL ([5]; 5 mg/mL in DMSO, fungi) [mm] | zone of inhibition at 5000 µg/mL [6, 21] [mm] | zone of inhibition at 5000 µg/mL [7, 22] [mm] | zone of inhibition at 5000 µg/mL [8, 23] [mm] | zone of inhibition at 5000 µg/mL [9, 24] [mm] | zone of inhibition at 5000 µg/mL [10, 25] [mm] | IZ range against Gm+ve, Gm-ve bacteria, and fungi [11] | melting point [°C] | zone of inhibition at 5000 µg/mL [18] [mm] | further results
1 | Nc1cccc2c(O)cccc12 [compound 5, 5-amino-1-naphthol] | 15.2 (≈ 95.5 µM) | 8.88 (≈ 55.8 µM) | 11.5 (≈ 72.2 µM) | 19.5 | 18.3 | 17.2 | 18.9 | 16.3 | 14.5 |  |  |  | IC50 ([1]; HCT-116, MCF-7, HEPG-2 together): 9 to 15 µg/mL (≈ 56.5 to 94.2 µM)
2 | COc1ccc(C2C(C#N)=C(N)Oc3c2ccc2c(N)cccc32)cc1 (centres unmarked) [7b, 2,7-Diamino-4-(4-methoxy-phenyl)-4H-benzo[h]chromene-3-carbonitrile] | 28.2 (≈ 82.1 µM) | 25.9 (≈ 75.4 µM) | 44.1 (≈ 128 µM) | 22.6 | 21.6 | 22.1 | 23.2 | 22.4 | 20.3 | 18-23 mm | 185 |  | 
3 | Nc1cc2ccccc2cc1O [compound 1, 3-amino-2-naphthol] | 60.5 (≈ 380 µM) |  |  |  |  |  |  |  |  |  |  |  | IC50 [1]: 60 to 230 µg/mL (≈ 377 to 1440 µM); IC50 ([3]; Homo sapiens, MCF7, read-out: IC50 MCF-7): 230 µg/mL (≈ 1440 µM); IC50 ([4]; Homo sapiens, HCT-116, read-out: IC50 HCT-116): 218 µg/mL (≈ 1370 µM); zone of inhibition at 5000 µg/mL [5]: 19.2 mm; zone of inhibition at 5000 µg/mL ([6]; RCMB02568, read-out: Inhibition Zone (IZ) diameter, A.F): 16.6 mm; zone of inhibition at 5000 µg/mL ([7]; RCMB010052, read-out: Inhibition Zone (IZ) diameter, E.C): 15.5 mm; zone of inhibition at 5000 µg/mL ([8]; RCMB010067, read-out: Inhibition Zone (IZ) diameter, B.S): 17.8 mm; zone of inhibition at 5000 µg/mL ([9]; RCMB010010, read-out: Inhibition Zone (IZ) diameter, S.P): 15.9 mm; zone of inhibition at 5000 µg/mL ([10]; RCMB05922, read-out: Inhibition Zone (IZ) diameter, S.R): 14.3 mm; MIC [12]: 62.5 µg/mL (≈ 393 µM); MIC ([13]; RCMB02568, read-out: Minimum inhibitory concentration, MIC, A.F): 15.6 µg/mL (≈ 98.2 µM); MIC [14]: 7.8 µg/mL (≈ 49 µM); MIC [15]: 31.2 µg/mL (≈ 196 µM); MIC [16]: 15.6 µg/mL (≈ 98.1 µM); MIC ([17]; RCMB05922, read-out: Minimum inhibitory concentration, MIC, S.R): 7.81 µg/mL (≈ 49.1 µM)
4 | N#CC1=C(N)Oc2c(ccc3c(N)cccc23)C1c1c(F)cc(F)cc1F (centres unmarked) [7d, 2,7-Diamino-4-(2,4,6-trifluoro-phenyl)-4H-benzo[h]chromene-3-carbonitrile] | 52.3 (≈ 142 µM) | 54 (≈ 147 µM) | 61.3 (≈ 167 µM) | 22.4 | 20.3 | 20.8 | 22.3 | 21.6 | 18.1 | 18-23 mm | 235 |  | 
5 | C[C@@H]1[C@H](O)[C@@H](C)/C=C/C=C/C=C/C=C/C=C/C=C/C=C/[C@H](O[C@@H]2O[C@H](C)[C@@H](O)[C@H](N)[C@@H]2O)C[C@@H]2O[C@](O)(C[C@@H](O)C[C@@H](O)[C@H](O)CC[C@@H](O)C[C@@H](O)CC(=O)O[C@H]1C)C[C@H](O)[C@H]2C(=O)O [Amphotericin B, reference compound] |  |  |  | 28.7 | 23.7 |  |  |  | 19.7 |  |  | 25.4 | MIC ([12]; fungi): 0.015 µg/mL (≈ 0.0162 µM); MIC ([13]; RCMB02568, fungi, read-out: Minimum inhibitory concentration, MIC, A.F): 0.24 µg/mL (≈ 0.26 µM); MIC ([17]; RCMB05922, fungi, read-out: Minimum inhibitory concentration, MIC, S.R): 3.9 µg/mL (≈ 4.22 µM)
6 | CC(=O)c1ccc(N=Nc2cc3c(cc2O)OC(N)=C(C#N)C3c2ccc(F)cc2)cc1 (centres unmarked) [13d, 6-(4-Acetyl-phenylazo)-2-amino-4-(4-fluoro-phenyl)-7-hydroxy-4H-chromene-3-carbonitrile] | 85 (≈ 198 µM) | 80 (≈ 187 µM) | 75 (≈ 175 µM) |  | 13.4 | 10.8 | 13.2 | 12.9 | 11.4 |  | 265 | 8 | 
